# Data reported in PubChem BioAssay AID1963841 (Molecular Pharmacology Branch, DTP, NCI, 2024).
# System: 439559-082-T-J2-PDC spheroid viability
# Assay: Anticancer human tumor 439559-082-T-J2-PDC patient-derived colon adenocarcinoma cell line growth inhibition [POLQ]
# Details: spheroids with HUVEC and MSC; for IC50: curve of first compound; for viability, T/C: stronger effect = lower value
# How it was run: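 Patient-derived tumour cells were co-cultured with HUVEC and mesenchymal stem cells as multicellular spheroids at 37 °C. They were treated with POLQ inhibitors (novobiocin, ART-558, RP6685) alone or combined with other agents. Top concentrations were at or near clinical Cmax (otherwise 10 microM; SN-38 at 1 microM), decreasing in half-log steps.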
# 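Note: spheroids exposed to compounds for seven days before readout.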
# 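Throughout, for viability, T/C: 100% = DMSO vehicle control viability.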
smiles,measurement,setting,value
CC(=O)O[C@H]1C(=O)[C@@]2(C)[C@H]([C@H](OC(=O)c3ccccc3)[C@]3(O)C[C@H](OC(=O)[C@H](O)[C@@H](NC(=O)c4ccccc4)c4ccccc4)C(C)=C1C3(C)C)[C@]1(OC(C)=O)CO[C@@H]1C[C@@H]2O + Cc1cccc(N(C)C(=O)C2C(O)CCN2c2nc(C)cc(C(F)(F)F)c2C#N)c1,IC50,second compound 0.0316 µM,2190 nM
same,IC50,second compound 0.1 µM,1780 nM
same,IC50,second compound 0.316 µM,1900 nM
same,IC50,second compound 1 µM,1710 nM
same,IC50,second compound 3.16 µM,1430 nM
same,IC50,second compound 10 µM,469 nM
same,"viability, T/C","second compound 0.0316 µM, first compound 0.00949 µM",77.2%
same,"viability, T/C","second compound 0.0316 µM, first compound 0.03 µM",78.5%
same,"viability, T/C","second compound 0.0316 µM, first compound 0.0949 µM",84.2%
same,"viability, T/C","second compound 0.0316 µM, first compound 0.3 µM",81.3%
same,"viability, T/C","second compound 0.0316 µM, first compound 0.949 µM",70.5%
same,"viability, T/C","second compound 0.0316 µM, first compound 3 µM",41.5%
same,"viability, T/C","second compound 0.1 µM, first compound 0.00949 µM",81.9%
same,"viability, T/C","second compound 0.1 µM, first compound 0.03 µM",84.4%
same,"viability, T/C","second compound 0.1 µM, first compound 0.0949 µM",77.4%
same,"viability, T/C","second compound 0.1 µM, first compound 0.3 µM",72.7%
same,"viability, T/C","second compound 0.1 µM, first compound 0.949 µM",66.4%
same,"viability, T/C","second compound 0.1 µM, first compound 3 µM",37.8%
same,"viability, T/C","second compound 0.316 µM, first compound 0.00949 µM",85.4%
same,"viability, T/C","second compound 0.316 µM, first compound 0.03 µM",86.6%
same,"viability, T/C","second compound 0.316 µM, first compound 0.0949 µM",78.5%
same,"viability, T/C","second compound 0.316 µM, first compound 0.3 µM",74.6%
same,"viability, T/C","second compound 0.316 µM, first compound 0.949 µM",61%
same,"viability, T/C","second compound 0.316 µM, first compound 3 µM",42.6%
same,"viability, T/C","second compound 1 µM, first compound 0.00949 µM",92%
same,"viability, T/C","second compound 1 µM, first compound 0.03 µM",82%
same,"viability, T/C","second compound 1 µM, first compound 0.0949 µM",79.4%
same,"viability, T/C","second compound 1 µM, first compound 0.3 µM",75.2%
same,"viability, T/C","second compound 1 µM, first compound 0.949 µM",65.2%
same,"viability, T/C","second compound 1 µM, first compound 3 µM",36.9%
same,"viability, T/C","second compound 3.16 µM, first compound 0.00949 µM",77.1%
same,"viability, T/C","second compound 3.16 µM, first compound 0.03 µM",71.5%
same,"viability, T/C","second compound 3.16 µM, first compound 0.0949 µM",74.1%
same,"viability, T/C","second compound 3.16 µM, first compound 0.3 µM",70.4%
same,"viability, T/C","second compound 3.16 µM, first compound 0.949 µM",55%
same,"viability, T/C","second compound 3.16 µM, first compound 3 µM",37.4%
same,"viability, T/C","second compound 10 µM, first compound 0.00949 µM",85.1%
same,"viability, T/C","second compound 10 µM, first compound 0.03 µM",74.2%
same,"viability, T/C","second compound 10 µM, first compound 0.0949 µM",74.4%
same,"viability, T/C","second compound 10 µM, first compound 0.3 µM",51.9%
same,"viability, T/C","second compound 10 µM, first compound 0.949 µM",44.4%
same,"viability, T/C","second compound 10 µM, first compound 3 µM",36.8%
